Laboratory results from patent US12404285B2, “KRAS G12D proteolysis targeting chimeras” (PAQ Therapeutics Inc., priority 2022, dated 2025).

Legend:
[1] = target: T1, KRAS in AGS cells (KRAS G12D mutant cell line) or LS180 cells (KRAS G12D mutant cell line) (Homo sapiens, UniProt P01116, G12D); assay: KRAS Western Blot (WB) assay; format: cell-based; settings: KRAS degradation, 24 hours incubation, normalized to β-actin
T1 construct: CRL-187 (LS180) (so in the source); host or cells: AGS or LS180 cells
Method in brief: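 AGS or LS180 (KRAS G12D) cells treated 24 h with compound; lysates run on SDS-PAGE and immunoblotted for KRAS with β-actin loading control. Fluorescent secondary detection; KRAS bands quantified, normalized to β-actin, giving DC50.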

[2] = target: T2, KRAS (G12D)-HiBit in AsPc-1-KRAS (G12D)-HiBit-KI cell (Homo sapiens, UniProt P01116, G12D); assay: G12D HiBit assay; format: cell-based; settings: 24 hours compound treatment, absolute DC50, read-out: Average PHA DC50
T2 construct: host or cells: AsPc-1-KRAS (G12D)-HiBit-KI cells (knock-in line)
Method in brief: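 Degradation of endogenous HiBiT-tagged KRAS G12D in AsPc-1 knock-in cells read after 24 h compound exposure (0.015-300 nM, 3-fold steps) by Nano-Glo HiBiT lytic luminescence. Signal normalised to DMSO-only cells; absolute DC50 derived by curve fitting.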

[3] = target: KRAS G12C (Homo sapiens, UniProt P01116, G12C); settings: homozygous and heterozygous tumor cells; cited from earlier work
[4] = tested on: tumor models harboring KRAS G12D mutations; settings: cited from earlier work
[5] = target: T3, KRAS G12D (Homo sapiens, UniProt P01116, G12D); settings: switch II pocket of KRAS G12D; noncovalent; cited from earlier work
[6] = target: T3, KRAS G12D; settings: cited from earlier work

Row | DC50 [1] | DC50 [2] [nM] | SMILES | also measured
1 | C (DC50 greater than or equal to 10 μM) |  | C#Cc1c(F)ccc2cc(O)cc(-c3ncc4c(N5CC6CCC(C5)N6)nc(OC[C@@]56CCCN5[C@H](COC(=O)NCCOCCOCCOCCNc5cccc7c5C(=O)N(C5CCC(=O)NC5=O)C7=O)CC6)nc4c3F)c12 (stereo partly drawn) [Compound 028, [(3S,8S)-8-[[4-(3,8-diazabicyclo[3.2.1]octan-3-yl)-7-(8-ethynyl-7-fluoro-3-hydroxy-1-naphthyl)-8-fluoro-pyrido[4,3-d]pyrimidin-2-yl]oxymethyl]-1,2,3,5,6,7-hexahydropyrrolizin-3-yl]methylN-[2-[2-[2-[2-[[2-(2,6-dioxo-3-piperidyl)-1,3-dioxo-isoindolin-4-yl]amino]ethoxy]ethoxy]ethoxy]ethyl]carbamate] | 
2 | A (DC50 less than 1 μM) |  | C#Cc1c(F)ccc2cccc(-c3ncc4c(N5CC6CCC(C5)N6)nc(OC[C@@]56CCCN5[C@H](COC(=O)NCCCCCCCCc5ccc7c(c5)n(C)c(=O)n7C5CCC(=O)NC5=O)CC6)nc4c3F)c12 (stereo partly drawn) [Compound 029, [(3S,8S)-8-[[4-(3, example 208-diazabicyclo[3.2.1]octan-3-yl)-7-(8-ethynyl-7-fluoro-1-naphthyl)-8-fluoro-pyrido[4,3-d]pyrimidin-2-yl]oxymethyl]-1,2,3,5,6,7-hexahydropyrrolizin-3-yl]methyl N-[8-[1-(2,6-dioxo-3-piperidyl)-3-methyl-2-oxo-benzimidazol-5-yl]octyl]carbamate] | 
3 | A (DC50 less than 1 μM) | < 100 | C#Cc1c(F)ccc2cccc(-c3ncc4c(N5CC6CCC(C5)N6)nc(OC[C@@]56CCCN5[C@H](COC(=O)N5CCC(OCCCc7cccc8c7n(C)c(=O)n8C7CCC(=O)NC7=O)CC5)CC6)nc4c3F)c12 (stereo partly drawn) [Compound 031, [(3S,8S)-8-[[4-(3,8-diazabicyclo[3.2.1]octan-3-yl)-7-(8-ethynyl-7-fluoro-1-naphthyl)-8-fluoro-pyrido[4,3-d]pyrimidin-2-yl]oxymethyl]-1,2,3,5,6,7-hexahydropyrrolizin-3-yl]methyl 4-[3-[1-(2,6-dioxo-3-piperidyl)-3-methyl-2-oxo-benzimidazol-4-yl]propoxy]piperidine-1-carboxylate] | 
4 | A (DC50 less than 1 μM) | < 100 | C#Cc1c(F)ccc2cc(O)cc(-c3ncc4c(N5CC6CCC(C5)N6)nc(OC[C@@]56CCCN5[C@H](COC(=O)N5CCC(OCCCc7cccc8c7n(C)c(=O)n8C7CCC(=O)NC7=O)CC5)CC6)nc4c3F)c12 (stereo partly drawn) [Compound 032, [(3S,8S)-8-[[4-(3,8-diazabicyclo[3.2.1]octan-3-yl)-7-(8-ethynyl-7-fluoro-3-hydroxy-1-naphthyl)-8-fluoro-pyrido[4,3-d]pyrimidin-2-yl]oxymethyl]-1,2,3,5,6,7-hexahydropyrrolizin-3-yl]methyl4-[3-[1-(2,6-dioxo-3-piperidyl)-3-methyl-2-oxo-benzimidazol-4-yl]propoxy]piperidine-1-carboxylate] | 
5 | A (DC50 less than 1 μM) | < 100 | C#Cc1c(F)ccc2cc(O)cc(-c3ncc4c(N5CC6CCC(C5)N6)nc(OC[C@@]56CCCN5[C@H](COC(=O)N5CCC(OCC#Cc7cccc8c7n(C)c(=O)n8C7CCC(=O)NC7=O)CC5)CC6)nc4c3F)c12 (stereo partly drawn) [Compound 033, [(3S,8S)-8-[[4-(3,8-diazabicyclo[3.2.1]octan-3-yl)-7-(8-ethynyl-7-fluoro-3-hydroxy-1-naphthyl)-8-fluoro-pyrido[4,3-d]pyrimidin-2-yl]oxymethyl]-1,2,3,5,6,7-hexahydropyrrolizin-3-yl]methyl 4-[3-[1-(2,6-dioxo-3-piperidyl)-3-methyl-2-oxo-benzimidazol-4-yl]prop-2-ynoxy]piperidine-1-carboxylate] | 
6 |  |  | C=C(F)C(=O)N1CCN(c2nc(OC[C@@H]3CCCN3CCCOCCC(=O)N[C@H](C(=O)N3C[C@H](O)C[C@H]3C(=O)NCc3ccc(-c4scnc4C)cc3)C(C)(C)C)nc3c2CCN(c2cccc4cccc(Cl)c24)C3)C[C@@H]1CC#N [LC-2] | degradation of KRAS G12C [3]: can rapidly degrade KRAS G12C
7 |  |  | C#Cc1c(F)ccc2cc(O)cc(-c3ncc4c(N5CC6CCC(C5)N6)nc(OC[C@@]56CCCN5C[C@H](F)C6)nc4c3F)c12 [MRTX1133] | in vivo efficacy [4]: in vivo efficacy; binding affinity [5]: picomolar; activity in cellular assays [6]: low nanomolar
